The values below are quoted from earlier work in patent US20070148074A1, “Nanoparticle based stabilization of ir fluorescent dyes” (priority 2003, published 2007).

The conditions of data set [1]: human body, administered intravenously.

Structures are written as SMILES.

Turning to `CC1(C)C(/C=C/C=C/C=C/C=C2\N(CCCCS(=O)(=O)O)c3ccc4ccccc4c3C2(C)C)=[N+](CCCCS(=O)(=O)[O-])c2ccc3ccccc3c21` [ICG, indocyanine green], the “fraction of dye in plasma that is protein-bound” value is about 95%. In data set [1], the elimination half-life was 2 to 4 min.
